Among the data in ChEMBL document CHEMBL1144096, “New phenanthrene derivatives from maxillaria densa(1)” (J Nat Prod, 1999) are IC50 values, retold here.

The test has as its system Ileum. Briefly: Inhibition of rat ileum contraction. It is filed as functional, tissue-based.

What is called IC50 is the midpoint of a concentration-inhibition curve. A higher IC50 goes with weaker potency. In turn, `COc1ccc(Cc2nccc3cc(OC)c(OC)cc23)cc1OC` [PAPAVERINE] came in with an IC50 of 1.55 µM.
